{"source": "patent US6861256B2", "about": "“Therapeutic and diagnostic tools for impaired glucose tolerance conditions” (The General Hospital Corporation, priority 1997, dated 2005)", "key": {"C. elegans dauers": {"tested_on": "C. elegans dauers", "experiment": "Dauer recovery assay on drug plates", "assay_type": "in vivo", "details": "for dauer recovery: C. elegans dauers induced by mutation or pheromone, drug plates; for dauer recovery of daf-2 dauers: daf-2(e1370) mutant dauers, all concentrations", "method": "Minimal media plates were used for the drug assays: 3.0 g NaCl, 20 g agarose (Sigma-Type II #A6877) and 970 ml of water. The autoclaved solution was cooled to 50-55° C. before 25 ml of 1M KPO4 (pH 6.0), 1.0 ml 1M CaCl2, 1.0 ml of 1M MgSO4, and 1 ml of 5 mg/ml cholesterol were added. In some assays, Escherichia coli (DH5α) bacteria arrested with streptomycin was added to each plate.\nIn some experiments, 100-200 eggs or synchronized L1s were put onto the drug plates. For all experiments described herein, about 10,000 L1s were placed in 10 ml of S Medium containing 1-2 ml of a 0.4% (w/v) solution of Escherichia coli DH5α bacteria in M9 solution (Wood (1988) (Cold Spring Harbor Laboratory Press, Cold Spring Harbor, N.Y.)) arrested with streptomycin, in a 25 ml flask on a rotating heated water bath at 25° C. For wild-type N2 dauers, 600 μl of the 0.4% bacterial solution and pheromone was also added to flask as described in Gottlieb and Ruvkun (1994) Genetics 137:107120. The pheromone preparation is a solution prepared as follows. Animals were grown in a large flask for several generations, and then spun down. The supernatant was boiled down to a brownish powder and then ethanol extracted. After 72 hours of liquid growth, animals were centrifuged and the supernatant removed. Animals were then resuspended in a 15 ml tube with a pre-heated 25° C. solution of 1% SDS and tubes were placed on a rocker at 25° C. for 30 minutes. Animals were centrifuged and the SDS removed. Animals were washed with either M9 or S medium (Wood (1988) (Cold Spring Harbor Laboratory Press, Cold Spring Harbor, N.Y.)) 4-6 times. After a final spin, 100-200 dauers were placed onto the drug plates without food. 24 and 48 hours later, plates were scored for the number of dauers and non-dauer adults.\nFor each strain tested, a control plate without any drug, with and without food was also tested. […] The assay was performed at 25° C., which means that the daf-c mutants are still under full dauer inducing conditions."}, "[1]": {"tested_on": "C. elegans unc-86 mutants", "experiment": "5HT accumulation in the NSM neuron of unc-86 mutants", "assay_type": "in vivo"}, "A. caninum L3": {"tested_on": "A. caninum L3", "experiment": "Drug assay in A. caninum (resumption of feeding of infective L3)", "assay_type": "in vivo, Ancylostoma caninum", "details": "for dauer recovery: A. caninum L3, agonist without serum and GSM", "method": "Hookworm infective L3 animals were collected from 1-4 wk old coproculture by the Baermann technique, and decontaminated with 1% HCL in BU buffer (50 mM Na2PO4/22 mM KH2PO4/70 mM NaCl, pH 6.8) (Hawdon and Schad (1991) in Developmental Adaptations in Nematodes., ed. C. A. Toft, A. A. a. L. B. (Oxford University Press, Oxford), pp. 274-298; and Hawdon and Schad (1991) J. Helm. Soc. Wash. 58:140-142) for 30 minutes at 22° C. Approximately 250 L3 animals were incubated in individual wells of a 96-well tissue culture plate containing 0.1 ml RPMI1640 tissue culture medium, supplemented with 0.25 mM HEPES pH 7.2, 100 U/ml penicillin, 100 μg/ml streptomycin, 100 μg/ml gentamycin, and 2.5 μg/ml amphotericin B. The L3 animals were activated to resume development and feeding by including 10% (v/v) canine serum and 25 mM S-methyl-glutathione (GSM; Hawdon et al. (1995) Exper. Parasitol. 80:205-211). Non-activated L3 animals were incubated in RPMI alone (i.e., without the stimulus). Stock solutions of the drugs were made in RPMI, and included in the incubation at the indicated concentrations. […] The L3 animals were incubated at 37° C. 5% CO2 for 24 hours. The percentage of feeding L3 animals was determined by incubating the L3 animals with 2.5 mg/ml FITC-BSA for 2-3 hours, followed by counting the number of L3 animals that had ingested the labeled BSA by microscopic examination under epi-fluorescent illumination (Hawdon and Schad (1990) J. Parasit. 76:394-398). Each treatment was done in triplicate, and each experiment was repeated at least once."}, "C. elegans DAF-16": {"tested_on": "T1, C. elegans DAF-16", "T1 sequence": "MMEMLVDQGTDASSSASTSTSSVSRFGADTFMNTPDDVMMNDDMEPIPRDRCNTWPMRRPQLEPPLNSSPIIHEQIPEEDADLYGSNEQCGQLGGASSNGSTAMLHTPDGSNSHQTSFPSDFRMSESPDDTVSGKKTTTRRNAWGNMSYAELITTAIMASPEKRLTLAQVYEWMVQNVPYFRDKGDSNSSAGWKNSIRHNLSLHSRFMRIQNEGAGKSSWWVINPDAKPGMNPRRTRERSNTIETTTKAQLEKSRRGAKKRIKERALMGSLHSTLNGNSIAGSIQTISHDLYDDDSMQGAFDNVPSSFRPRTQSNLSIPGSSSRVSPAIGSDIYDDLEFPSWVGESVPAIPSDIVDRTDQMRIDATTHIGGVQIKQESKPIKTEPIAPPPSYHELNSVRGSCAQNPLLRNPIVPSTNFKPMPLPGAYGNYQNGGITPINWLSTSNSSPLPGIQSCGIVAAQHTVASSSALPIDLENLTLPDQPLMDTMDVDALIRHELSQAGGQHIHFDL"}, "[2]": {"tested_on": "C. elegans DAF-16 with the serine or threonine of the Akt/PKB consensus sites mutated to alanine"}, "[3]": {"details": "wild-type pheromone-induced dauers"}}, "note": "“Also recorded” adds a separate entry of the source."}
{"molecule": "c1ccc([C@H]2CN3CCSC3=N2)cc1", "note": "[Levamisole, levamisole]", "values": [{"measurement": "dauer recovery", "setting": "C. elegans dauers", "value": "no effect on dauer recovery"}]}
{"molecule": "CNCCC(Oc1ccc(C(F)(F)F)cc1)c1ccccc1", "note": "(centres unmarked) [Prozac]", "values": [{"measurement": "5HT accumulation in the NSM", "setting": "[1]", "value": "causes 5HT accumulation in the NSM to disappear"}]}
{"molecule": "COC(=O)C1=CCCN(C)C1", "note": "[arecoline]", "values": [{"measurement": "dauer recovery", "setting": "A. caninum L3", "value": "promotes dauer recovery"}, {"measurement": "maximal response lower than for the other agonists", "setting": "A. caninum L3; A. caninum, FIG. 44B", "value": 10, "unit": "fold lower"}, {"measurement": "dauer recovery", "setting": "C. elegans dauers", "value": "promoted dauer recovery; also recorded: promoted recovery of dauers induced by mutation as well as pheromone"}, {"measurement": "maximal response lower than for the other agonists", "setting": "C. elegans dauers; C. elegans, FIG. 44B", "value": 10, "unit": "fold lower"}, {"measurement": "dauer recovery of daf-2 dauers", "setting": "C. elegans dauers", "value": "fails to recover at all concentrations"}]}
{"molecule": "CN1[C@@H]2CC[C@H]1C[C@@H](OC(=O)C(CO)c1ccccc1)C2", "note": "(some centres unmarked) [atropine]", "values": [{"measurement": "recovery with arecoline plus atropine", "setting": "A. caninum L3; A. caninum L3, 0.5 mM arecoline and 1.0 mM atropine (increasing atropine in FIG. 44C)", "value": "completely inhibited; also recorded: failed to recover"}, {"measurement": "recovery / resumption of feeding", "setting": "A. caninum L3; A. caninum L3, 10% serum and 25 mM GSM, atropine 0.5 mM", "value": "completely inhibited recovery"}, {"measurement": "inhibition at 500 µM", "setting": "A. caninum L3; Ancylostoma caninum, read-out: inhibition of recovery", "value": 99.5, "unit": "%"}, {"measurement": "inhibition of muscarinic agonist-induced dauer recovery", "setting": "C. elegans dauers; C. elegans, 1 mM oxotremorine, increasing atropine", "value": "completely inhibited; also recorded: all of the drug-induced dauer recovery was inhibited"}, {"measurement": "recovery induced by oxotremorine in combination with atropine", "setting": "C. elegans dauers; daf-7(e1372) dauers, 1 mM oxotremorine + 1 mM atropine", "value": 5, "unit": "%"}, {"measurement": "oxotremorine response in presence of atropine", "setting": "C. elegans dauers; daf-7(e1372) dauers, 1 mM oxotremorine + 5 mM atropine", "value": "completely abolished"}, {"measurement": "dauer larvae recovered", "setting": "C. elegans dauers; pheromone-induced dauers, bacterial food plus atropine, 25° C.", "value": 21, "unit": "%"}]}
{"molecule": "C[N+](C)(C)CCOC(N)=O", "note": "[carbachol]", "values": [{"measurement": "dauer recovery", "setting": "C. elegans dauers", "value": "promoted recovery of dauers induced by mutation as well as pheromone"}]}
{"molecule": "C[C@@H]1O[C@H](C[N+](C)(C)C)C[C@H]1O", "note": "[muscarine]", "values": [{"measurement": "dauer recovery", "setting": "C. elegans dauers", "value": "promoted dauer recovery"}]}
{"molecule": "O=C1CCCN1CC#CCN1CCCC1", "note": "[oxotremorine]", "values": [{"measurement": "dauer recovery", "setting": "A. caninum L3", "value": "promotes dauer recovery"}, {"measurement": "concentration of maximum recovery", "setting": "A. caninum L3; A. caninum L3 dauers", "value": 5, "unit": "mM"}, {"measurement": "dauer recovery", "setting": "C. elegans dauers", "value": "promoted dauer recovery; also recorded: promoted recovery of dauers induced by mutation as well as pheromone"}, {"measurement": "Emax at 1000 µM", "setting": "C. elegans dauers; Caenorhabditis elegans, daf-7(e1372), daf-10(e1387) double mutant, 1 mM oxotremorine, read-out: maximum response, recovery", "value": 13, "unit": "%"}, {"measurement": "dauers that recover", "setting": "C. elegans dauers; daf-1(m40) dauers in oxotremorine", "value": 30, "unit": "%"}, {"measurement": "dauer recovery of daf-2 dauers", "setting": "C. elegans dauers", "value": "fails to recover at all concentrations"}, {"measurement": "dauers that recover", "setting": "C. elegans dauers; daf-4(m63) dauers in oxotremorine", "value": 50, "unit": "%"}, {"measurement": "concentration of maximum recovery", "setting": "C. elegans dauers; daf-7(e1372) dauers", "value": 5, "unit": "mM"}, {"measurement": "dauers recovered", "setting": "C. elegans dauers; daf-7(e1372) dauers, 1 mM oxotremorine", "value": 40, "unit": "%"}, {"measurement": "concentration of maximum recovery", "setting": "C. elegans dauers; [3]", "value": 1, "unit": "mM"}]}
{"molecule": "CC[C@@H]1C(=O)OC[C@@H]1Cc1cncn1C", "note": "[pilocarpine]", "values": [{"measurement": "dauer recovery", "setting": "A. caninum L3", "value": "failed to recover"}, {"measurement": "dauer recovery", "setting": "C. elegans dauers", "value": "promoted dauer recovery; also recorded: promoted recovery of dauers induced by mutation as well as pheromone"}, {"measurement": "concentration of maximum recovery", "setting": "C. elegans dauers; daf-7(e1372) dauers", "value": 5, "unit": "mM"}, {"measurement": "concentration of maximum recovery", "setting": "C. elegans dauers; [3]", "value": 1, "unit": "mM"}]}
{"molecule": "human AKT", "values": [{"measurement": "in vitro phosphorylation", "setting": "C. elegans DAF-16", "value": "human AKT will phosphorylate C. elegans DAF-16"}, {"measurement": "in vitro phosphorylation", "setting": "[2]", "value": "in vitro phosphorylation of DAF-16 (or fragments of DAF-16) is abolished"}]}
